Paper PMC4718634, “Murine GPRC6A Mediates Cellular Responses to L-Amino Acids, but Not Osteocalcin Variants” (PLoS ONE, 2016)
Entries after “also recorded” stand apart in the source; their conditions may differ. Bridge positions count the residues as written; N and C are the ends. Ends that are not written are not given here.

What was measured:
[1] = system: GPRC6A; parameters: method as in PMID 15576628; conditions: chimera with goldfish 5.24 receptor and full length GPRC6A; ref [1]; cited from earlier work
[2] = target: T1, mGPRC6A (mouse GPRC6A) (Mus musculus, UniProt Q8K4Z6); test: Ca^2+i mobilisation, FlpIn-TREx-HEK293-mGPRC6A cells; type: cell-based
T1 sequence (Q8K4Z6 21-928): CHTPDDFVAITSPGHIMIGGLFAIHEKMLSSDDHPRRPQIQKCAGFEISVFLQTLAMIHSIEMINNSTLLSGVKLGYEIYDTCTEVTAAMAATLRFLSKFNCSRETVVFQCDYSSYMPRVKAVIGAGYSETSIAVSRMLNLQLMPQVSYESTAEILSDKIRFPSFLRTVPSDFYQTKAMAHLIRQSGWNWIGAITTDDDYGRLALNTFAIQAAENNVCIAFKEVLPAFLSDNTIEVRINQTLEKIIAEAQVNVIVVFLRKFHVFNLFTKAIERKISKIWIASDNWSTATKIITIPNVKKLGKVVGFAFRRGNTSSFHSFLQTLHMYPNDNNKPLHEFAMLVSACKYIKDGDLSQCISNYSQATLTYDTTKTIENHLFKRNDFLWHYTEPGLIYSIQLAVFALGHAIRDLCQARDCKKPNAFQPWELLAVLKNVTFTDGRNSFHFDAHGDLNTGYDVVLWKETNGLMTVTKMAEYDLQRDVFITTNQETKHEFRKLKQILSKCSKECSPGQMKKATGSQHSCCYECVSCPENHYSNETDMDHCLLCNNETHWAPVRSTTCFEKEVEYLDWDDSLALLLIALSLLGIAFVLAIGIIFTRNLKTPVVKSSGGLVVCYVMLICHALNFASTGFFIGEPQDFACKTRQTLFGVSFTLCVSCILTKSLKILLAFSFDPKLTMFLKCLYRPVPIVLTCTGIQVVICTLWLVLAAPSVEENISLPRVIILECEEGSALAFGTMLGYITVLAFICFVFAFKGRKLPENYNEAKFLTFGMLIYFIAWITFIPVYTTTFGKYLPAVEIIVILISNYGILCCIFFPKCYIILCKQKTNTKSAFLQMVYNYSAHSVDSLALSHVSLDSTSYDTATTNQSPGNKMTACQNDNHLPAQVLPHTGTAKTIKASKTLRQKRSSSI
Description: (§1) pcDNA 5/FRT/TO constructs were isogenically integrated into a FlpIn-TREx-HEK293 cell line (Life Technologies). FlpIn-TREx-HEK293-mGPRC6A and FlpIn-TREx-HEK293-hGPRC6A cells were then selected using 600 μg/ml hygromycin and 5 μg/ml blasticidin and grown in culture medium consisting of Dulbecco’s Modified Eagle Medium (DMEM), supplemented with 10% (v/v) foetal bovine serum (FBS) at 37°C in 5% CO2 and were sub-cultured in a 1:3 ratio every 3–4 days. Cells were cultured overnight in the presence of 1 μg/ml tetracycline to induce GPRC6A expression. […] 48 h after transfection, cells were selected using 3 μg/ml puromycin and grown as above.
FlpIn-TREx-HEK293-mGPRC6A cells were seeded into T75 flasks at 70% confluency. Cells were transfected with 15μg of plasmid DNA (Gαq or GαqG66D) with Lipofectamine LTX according to manufacturer's instructions, then incubated for 24h at 37°C in 5% CO2. Cells were plated into 96-well plates (10^5 cells/well) and equilibrated at 37°C in 5% CO2 for 4-6h to adhere, whereupon cells were serum starved overnight at 37°C in 5% CO2. For the assay, cells were washed twice in Ca^2+ assay buffer (150 mM NaCl, 2.6 mM KCl, 1.2 mM MgCl2, 10 mM dextrose, 10 mM HEPES, 2.2 mM CaCl2, 0.5% (w/v) BSA and 4 mM probenecid; pH 7.4). Buffer was then replaced with Ca^2+ assay buffer containing 1μM Fluo-4-AM and incubated for 1h at 37°C in 5% CO2. Cells were washed twice more and replaced with Ca^2+ assay buffer at 37°C. Serial dilutions of test agonists were added by injection in a Flexstation™ (Molecular Devices) and fluorescence was measured at 485nm excitation and 520nm emission wavelengths. Agonist responses were normalised to the peak of response to 100 μM ATP.
(§2) Data for all HEK293 assays represent the mean ± SEM of at least three independent experiments (except cell impedance, n = 2). For GLP-1 release, the data represent mean ± SEM of three to five independent experiments (except for OCN, wash; n = 2). For insulin release assays, data represent the mean ± SEM of three independent experiments (except for islet studies; n = 2). Insulin release data were normalised to the response to vehicle in either low or high [glucose]. Statistical analysis for GLP-1 release data were performed by one-way ANOVA, followed by Sidak’s multiple comparisons test (treating wash / no wash datasets separately). Statistical analyses for insulin release data were performed by two-way ANOVA (with [glucose] and drug treatment as group variables), followed by Sidak’s multiple comparisons test. Where only high [glucose] groups were evaluated, statistical analysis was by one-way ANOVA followed by Sidak’s multiple comparisons test.

[3] = system: INS-1(832) cells; test: Label-free cell impedance, INS-1(832) cells; type: cell-based, rat; conditions: Gprc6a-negative; EBSS, 2.8 mM glucose; Fig 7; two-way ANOVA, *P < 0.05, **P < 0.01 vs Vehicle; listed as synthetic mouse OCN
Description: For INS-1 cells, 100 μl of medium (RPMI 1640 no glucose, 10% FBS, 55 μM β-mercaptoethanol, 1 mM sodium pyruvate, 10 mM HEPES, 100 U/ml penicillin, 100 μg/ml streptomycin, 11.1 mM glucose) was added per well to an E-plate 96 and a background reading taken. Cells were seeded at 2 x 10^4 / well and the plates incubated in the instrument for 48 h. On the day of the experiment, media was changed to EBSS buffer (180 μl; 2.8 mM glucose, 1.8 mM CaCl2, 5.3 mM KCl, 0.8 mM MgSO4, 117 mM NaCl, 26 mM NaHCO3, 1 mM NaH2PO4). After 2 h incubation, cells were stimulated with 20 μl test compound (10 x final) prepared in the same buffer. Data capture and analysis were as for HEK293 cells.

[4] = system: MIN6 cells; test: Insulin release from MIN6 cells; type: cell-based, murine; conditions: mouse OCN 0.03–30 ng/mL, 0.03–100 ng/mL (Fig 6B legend); low and high glucose
Description: (§3) MIN6 or βTC-6 cells were seeded in 24-well plates at 170,000 cells per well in DMEM (containing 4.5g/L glucose, 10 mM HEPES, 100 U/ml penicillin, 100 μg/ml streptomycin and 15% de-complemented FBS) and incubated at 37°C / 5% CO2 for 72 h. Cells were then washed with 500 μl PBS and incubated in 500 μl deprivation media (DMEM with zero glucose, 10 mM HEPES, 1 mM Na-pyruvate, 100 U/ml penicillin, 100 μg/ml streptomycin, 15% de-complemented FBS) for 2 h at 37°C. Media was aspirated and after washing with 500 μl PBS, cells were treated with 250 μl of Krebs buffer (250 mM NaCl, 5.9 mM KCl, 1.2 mM MgCl2, 1.3 mM CaCl2, 25 mM HEPES, 0.1% BSA (w/v), and 2 mM or 16.7 mM glucose; pH 7.4) in the presence or absence of test compound. After incubation for 2 h at 37°C, the assay was terminated by placing the plates on ice and supernatants were transferred to a 96-well plate in preparation for insulin ELISA (Alpco) following manufacturer’s instructions. The cell monolayer was washed twice with 500 μl of PBS and then lysed using 250 μl of 1 N NaOH prior to protein measurement by the method of Bradford (1976).
as §2, with “Concentration-response data were analysed using a three or four parameter logistic function (Motulsky & Christopoulos, 2004) to generate estimates of agonist potency (LogEC50). Data” for “Data”

[5] = system: β-TC6 cells; test: Insulin release from β-TC6 cells; type: cell-based, murine; conditions: OCN 0.03–100 ng/ml; both glucose concentrations; S3 Fig A
Description: as §3
as §2, with “Concentration-response data were analysed using a three or four parameter logistic function (Motulsky & Christopoulos, 2004) to generate estimates of agonist potency (LogEC50). Data” for “Data”

[6] = system: GLUTag cells; test: GLP-1 release from GLUTag cells; type: cell-based, murine; conditions: 0.01–10 ng/ml; with or without cell washing; 2 h; Fig 6A
Description: Intestinal L-cell model GLUTag cells were seeded in 24-well plates coated with Matrigel and incubated for 6 days in DMEM with 10% FBS, 100 U/ml penicillin, 100 μg/ml streptomycin at 37°C in 5% CO2 and grown for 4–5 days. Where indicated, cells were washed (1 or 2 x 1h) with Krebs-HEPES buffer (20 mM HEPES, 118 mM NaCl, 4.7 mM KCl, 1.2 mM MgSO4, 5 mM NaHCO3, 1.2 mM KH2PO4, 2.5 mM CaCl2, 5.5 mM glucose, 0.2% BSA (w/v), pH 7.2) containing vildagliptin (300 μM) prior to addition of test compounds in the same buffer. After 2 h incubation at 37°C in 5% CO2, the supernatant was recovered and centrifuged at 500 rpm for 5 min. Where used, NPS-2143 pre-treatment was for 30 min.
GLP-1 content in the cell supernatant was measured by ELISA (EGLP-35K, Millipore), according to manufacturer’s instructions after overnight incubation of 15 μl supernatant in 100 μl Krebs-HEPES buffer at 4°C. After 5 x washes, 200 μl of detection conjugate was added and incubated for 2 h at RT. After 3 x washes the reaction was developed with 200 μl of diluted substrate (1:200) for 20 min and terminated by addition of 50 μl stop solution. After 5 min, fluorescence was then measured using 355 nm excitation and 460 nm emission, transforming the obtained signal into pmol GLP-1/well/ml and corrected for GLUTag cell protein content as determined using the method of Bradford (1976).
as §2, with “Concentration-response data were analysed using a three or four parameter logistic function (Motulsky & Christopoulos, 2004) to generate estimates of agonist potency (LogEC50). Data” for “Data”

[7] = target: T1, mGPRC6A (mouse GPRC6A); test: Cyclic AMP accumulation, FlpIn-TREx-HEK293-mGPRC6A cells; type: cell-based; conditions: 30 min, 0.5 mM IBMX; Alphascreen; Fig 3A
Description: as §1
HEK293-mGPRC6A cells were seeded at a density of 10^5 cells per well into PDL-coated 96-well plates and incubated overnight in DMEM, supplemented with 10% FBS (v/v) at 37°C in 5% CO2. Cells were then incubated in 90 μl of stimulation buffer (HBSS containing 5 mM HEPES, 0.1% BSA (w/v), 0.5 mM IBMX; pH 7.4) for 30 min at 37°C. Test compounds (10 μl at 10 x final) were added and cells were incubated for an additional 30 min at 37°C. The medium was removed and cells were incubated in 50 μl of ice-cold 100% ethanol. Once evaporated, 100 μl of lysis buffer (5 mM HEPES, 0.1% BSA (w/v), 0.3% Tween-20; pH 7.4) was added to the cells and samples were stored at -20°C until further analysis. Samples were analysed using the Alphascreen® cAMP assay kit (Perkin Elmer) following manufacturer instructions. Briefly, 10 μl of lysates were added to a 384-well Optiplate. After addition of 5 μl of acceptor bead mix, plate was incubated at RT for 30 min followed by addition of 15 μl of donor bead mix. After overnight (16 h) incubation at RT, plates were read using the Envision plate reader.

NCCCC[C@H](N)C(=O)O [L-lysine]
agonist response of GPRC6A [1]: mediates responses to L-amino acids
EC50 [2]: 15.8 µM
potency at murine GPRC6A (calcium and inositol phosphate, words) ([2]; calcium mobilisation and inositol phosphate accumulation, Discussion): most potent agonists
rank order of potency, Ca^2+ mobilisation ([2]; co-expressing GαqG66D, Fig 1D): L-ornithine > L-arginine = L-lysine

mouse synthetic OCN: synthetic de-carboxylated mouse osteocalcin, Federation Bioscience (YLGASVPSPDPLEPTREQCELNPACDELSDQYGLKTAYKRIYGITI-OH; disulfide 19-25 (inferred); not fully specified)
change in cell impedance (cell index) [3]: significant changes in cell impedance; also recorded: Concentration-dependent increases in cell index
insulin secretion, OCN [4]: did not affect insulin secretion

YLYQWLGAPVPYPDPLEPRREVCELNPDCDELADHIGFQEAYRRFYGPV-NH2/-COOH (disulfide) [human synthetic OCN (acid form), synthetic de-carboxylated human osteocalcin, Federation Bioscience]
insulin secretion, OCN [5]: no significant effect
GLP-1 release, OCN [6]: did not increase GLP-1 release

C=C[C@@]1(C)CC(=O)[C@]2(O)[C@@]3(C)[C@@H](O)CCC(C)(C)[C@@H]3[C@H](O)[C@H](OC(C)=O)[C@@]2(C)O1 [forskolin]
stimulation of cAMP accumulation [7]: robust increases in cAMP levels
